Drawing on patent publication US20230024442A1, “BIFUNCTIONAL COMPOUNDS FOR GRADING BTK VIA UBIQUITIN PROTEOSOME PATHWAY” (NURIX THERAPEUTICS, INC., priority 2019, published 2023), this text covers DC50 for 25 compounds.

For the experiment, the target named is T1, BTK (Homo sapiens, UniProt Q06187).
T1 construct: endogenous in cells; host or cells: Ramos (ATCC CRL-1596)
As to the kind of experiment: Cellular BTK HTRF Assay (BTK levels in Ramos cells). It counts as cell-based. The conditions noted are these: Ramos cells, 50,000 cells, incubated four hours at 37° C.; BTK levels by Cisbio Total-BTK HTRF relative to DMSO-treated cells. Here is the method: Ramos (CRL-1596) cells were obtained from American Type Culture Collection and were grown in RPMI-1640 media (ATCC, 30-2001) supplemented with 10% heat-inactivated FBS (Corning Premium Fetal Bovine Serum from Fisher, MT35015CV).
Compounds of the present invention were added to 50,000 Ramos cells in round-bottom 96 well plates with a final DMSO concentration of […] and were incubated at 37° C. 5% CO2 for four hours. BTK levels were determined using Cisbio Total-BTK HTRF ([…] Time-Resolved Fluorescence) kit (63ADK064PEG) according to manufacturer's protocol. Briefly, cells were incubated in 1× supplied lysis buffer for 30 minutes. In an opaque white low volume 96 well plate (Cisbio, 66PL96005), cell lysate was combined with two different specific BTK antibodies, one conjugated with Eu^3+-Cryptate FRET donor and one conjugated with d2 FRET acceptor. Assay controls include wells containing cell lysate with only the Eu^3+-Cryptate FRET donor antibody and wells containing both HTRF antibodies and lysis buffer without cells or control lysate provided by Cisbio. HTRF ratio was calculated as (acceptor signal at 665 nm/donor signal at 620 nm)×10^4. Background HTRF levels were determined from the control well containing the donor, but no acceptor, antibody. Background HTRF levels were subtracted from all samples. Readouts were reported as HTRF levels relative to HTRF levels of DMSO-treated cells. Four-parameter non-linear regressions were performed in GraphPad Prism 7.02 to obtain DC50 values. DC50 values are provided in Table 7, wherein A<1 nM, 1 nM≤B≤10 nM, and 10 nM<C<1 μM.

T1 sequence (Q06187 whole entry): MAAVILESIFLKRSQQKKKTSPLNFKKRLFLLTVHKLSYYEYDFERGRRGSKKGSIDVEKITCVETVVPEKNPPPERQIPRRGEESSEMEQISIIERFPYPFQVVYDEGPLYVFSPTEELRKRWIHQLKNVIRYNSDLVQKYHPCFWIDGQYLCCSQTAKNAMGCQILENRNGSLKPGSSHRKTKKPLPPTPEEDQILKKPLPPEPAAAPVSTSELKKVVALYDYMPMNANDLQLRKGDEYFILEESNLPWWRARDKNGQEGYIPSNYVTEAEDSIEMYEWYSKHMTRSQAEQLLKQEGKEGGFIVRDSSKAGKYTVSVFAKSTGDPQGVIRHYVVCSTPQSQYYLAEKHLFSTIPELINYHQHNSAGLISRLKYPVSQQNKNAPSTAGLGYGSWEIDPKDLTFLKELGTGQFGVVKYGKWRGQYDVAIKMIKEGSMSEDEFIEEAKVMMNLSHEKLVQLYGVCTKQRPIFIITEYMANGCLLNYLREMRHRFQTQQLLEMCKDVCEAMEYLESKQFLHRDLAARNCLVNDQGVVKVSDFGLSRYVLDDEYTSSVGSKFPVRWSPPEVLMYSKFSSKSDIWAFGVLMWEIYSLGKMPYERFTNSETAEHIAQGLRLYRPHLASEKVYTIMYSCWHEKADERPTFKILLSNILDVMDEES

With `C[C@@H]1CN(CCOCCNc2cccc3c2C(=O)N(C2CCC(=O)NC2=O)C3=O)CCN1c1ccc(Nc2cc(-c3ccnc(N4CCn5c(cc6c5CC(C)(C)C6)C4=O)c3CO)cn(C)c2=O)nc1` (stereo partly shown) [Compound 40], the DC50 was under 1 nM. In turn, `Cn1cc(-c2ccnc(-n3ncc4cc(C(C)(C)C)cc(F)c4c3=O)c2CO)cc(Nc2cc3n(n2)CCN(C(=O)CCOCCCc2cccc4c2CN(C2CCC(=O)NC2=O)C4=O)C3)c1=O` (stereo not shown) [Compound 2] showed a DC50 of 10 to 1000 nM. For `Cn1cc(-c2ccnc(-n3ncc4cc(C(C)(C)C)cc(F)c4c3=O)c2CO)cc(Nc2cc3n(n2)CCN(C(=O)CCCNc2cccc4c2C(=O)N(C2CCC(=O)NC2=O)C4=O)C3)c1=O` (stereo not shown) [Compound 9] the value was 1 to 10 nM.

`Cn1cc(-c2ccnc(-n3ncc4cc(C(C)(C)C)cc(F)c4c3=O)c2CO)cc(Nc2cc3n(n2)CCN(C(=O)CN2CCN(CCc4cccc5c4CN(C4CCC(=O)NC4=O)C5=O)CC2)C3)c1=O` (stereo not shown) [Compound 22]: the DC50 fell in the range of 10 to 1000 nM. For `Cn1cc(-c2ccnc(-n3ncc4cc(C(C)(C)C)cc(F)c4c3=O)c2CO)cc(Nc2cc3n(n2)CCN(C(=O)CCOCCNc2cccc4c2C(=O)N(C2CCC(=O)NC2=O)C4=O)C3)c1=O` (stereo not shown) [Compound 1] the value was 1 to 10 nM. Next, `CN[C@@H](C)C(=O)N[C@H](C(=O)N1CCC[C@H]1c1nc(C(=O)c2cccc(OCCOCCC(=O)N3CCn4nc(Nc5cc(-c6ccnc(-n7ncc8cc(C(C)(C)C)cc(F)c8c7=O)c6CO)cn(C)c5=O)cc4C3)c2)cs1)C1CCCCC1` [Compound 6, (S)—N—((S)-2-((S)-2-(4-(3-(2-(3-(2-((2′-(6-(tert-butyl)-8-fluoro-1-oxophthalazin-2(1H)-yl)-3′-(hydroxymethyl)-1-methyl-6-oxo-1,6-dihydro-[3,4′-bipyridin]-5-yl)amino)-6,7-dihydropyrazolo[1,5-a]pyrazin-5(4H)-yl)-3-oxopropoxy)ethoxy)benzoyl)thiazol-2-yl)pyrrolidin-1-yl)-1-cyclohexyl-2-oxoethyl)-2-(methylamino)propanamide]: 10 to 1000 nM. Next, `C[C@@H]1CN(C(=O)NCCCCCc2cccc3c2CN(C2CCC(=O)NC2=O)C3=O)CCN1c1ccc(Nc2cc(-c3ccnc(N4CCn5c(cc6c5CC(C)(C)C6)C4=O)c3CO)cn(C)c2=O)nc1` (stereo partly shown) [Compound 46]: 1 to 10 nM; `Cn1cc(-c2ccnc(-n3ncc4cc(C(C)(C)C)cc(F)c4c3=O)c2CO)cc(Nc2cc3n(n2)CCN(C(=O)CNc2cccc4c2C(=O)N(C2CCC(=O)NC2=O)C4=O)C3)c1=O` (stereo not shown) [Compound 12]: 1 to 10 nM; `C[C@H]1CN(C(=O)C2CC3(CC(Nc4cccc5c4C(=O)N(C4CCC(=O)NC4=O)C5=O)C3)C2)CCN1c1ccc(Nc2cc(-c3ccnc(N4CCn5c(cc6c5CC(C)(C)C6)C4=O)c3CO)cn(C)c2=O)nc1` (stereo partly shown) [Compound 34]: 1 to 10 nM. `Cn1cc(-c2ccnc(-n3ncc4cc(C(C)(C)C)cc(F)c4c3=O)c2CO)cc(Nc2cc3n(n2)CCN(CCCCc2cccc4c2CN(C2CCC(=O)NC2=O)C4=O)C3)c1=O` (stereo not shown) [Compound 18] returned a DC50 of 1 to 10 nM. Next, `C[C@H]1CN(C(=O)CCOCCOCCOCCCc2cccc3c2CN(C2CCC(=O)NC2=O)C3=O)CCN1c1ccc(Nc2cc(-c3ccnc(N4CCn5c(cc6c5CC(C)(C)C6)C4=O)c3CO)cn(C)c2=O)nc1` (stereo partly shown) [Compound 49]: 1 to 10 nM; `C[C@H]1CN(C(=O)[C@H]2C[C@H](OCCCc3cccc4c3CN(C3CCC(=O)NC3=O)C4=O)C2)CCN1c1ccc(Nc2cc(-c3ccnc(N4CCn5c(cc6c5CC(C)(C)C6)C4=O)c3CO)cn(C)c2=O)nc1` (stereo partly shown) [Compound 29]: 1 to 10 nM; `Cn1cc(-c2ccnc(-n3ncc4cc(C(C)(C)C)cc(F)c4c3=O)c2CO)cc(Nc2cc3n(n2)CCN(C(=O)CN2CCN(CCCc4cccc5c4CN(C4CCC(=O)NC4=O)C5=O)CC2)C3)c1=O` (stereo not shown) [Compound 16]: 10 to 1000 nM. Consider `Cn1cc(-c2ccnc(-n3ncc4cc(C(C)(C)C)cc(F)c4c3=O)c2CO)cc(Nc2cc3n(n2)CCN(C(=O)[C@H]2C[C@@H](OCCCc4cccc5c4CN(C4CCC(=O)NC4=O)C5=O)C2)C3)c1=O` (stereo partly shown) [Compound 17], for which the DC50 lay in the range of 10 to 1000 nM. For `C[C@H]1CN(C(=O)NCCOCCOCCOCCCc2cccc3c2CN(C2CCC(=O)NC2=O)C3=O)CCN1c1ccc(Nc2cc(-c3ccnc(N4CCn5c(cc6c5CC(C)(C)C6)C4=O)c3CO)cn(C)c2=O)nc1` (stereo partly shown) [Compound 47] the value was 1 to 10 nM. For `C[C@H]1CN(C(=O)CCNc2cccc3c2C(=O)N(C2CCC(=O)NC2=O)C3=O)CCN1c1ccc(Nc2cc(-c3ccnc(N4CCn5c(cc6c5CC(C)(C)C6)C4=O)c3CO)cn(C)c2=O)nc1` (stereo partly shown) [Compound 36] the value was 10 to 1000 nM. For `Cn1cc(-c2ccnc(-n3ncc4cc(C(C)(C)C)cc(F)c4c3=O)c2CO)cc(Nc2cc3n(n2)CCN(C(=O)CCCN2CCN(c4cc5c(cc4F)C(=O)N(C4CCC(=O)NC4=O)C5=O)CC2)C3)c1=O` (stereo not shown) [Compound 23] the value was 1 to 10 nM; for `CN[C@@H](C)C(=O)N[C@H](C(=O)N1CCC[C@H]1c1nc(C(=O)c2cccc(OCCOCCOCCOCCC(=O)N3CCn4nc(Nc5cc(-c6ccnc(-n7ncc8cc(C(C)(C)C)cc(F)c8c7=O)c6CO)cn(C)c5=O)cc4C3)c2)cs1)C1CCCCC1` (stereo in doubt) [Compound 7, (S)—N—((S)-2-((S)-2-(4-(3-(2-(2-(2-(3-(2-((2′-(6-(tert-butyl)-8-fluoro-1-oxophthalazin-2(1H)-yl)-3′-(hydroxymethyl)-1-methyl-6-oxo-1,6-dihydro-[3,4′-bipyridin]-5-yl)amino)-6,7-dihydropyrazolo[1,5-a]pyrazin-5(4H)-yl)-3-oxopropoxy)ethoxy)ethoxy)ethoxy)benzoyl)thiazol-2-yl)pyrrolidin-1-yl)-1-cyclohexyl-2-oxoethyl)-2-(methylamino)propanamide], 10 to 1000 nM. `C[C@H]1CN(C(=O)CCCCc2cccc3c2CN(C2CCC(=O)NC2=O)C3=O)CCN1c1ccc(Nc2cc(-c3ccnc(N4CCn5c(cc6c5CC(C)(C)C6)C4=O)c3CO)cn(C)c2=O)nc1` (stereo partly shown) [Compound 38]: the DC50 was 1 to 10 nM.

The compound `C[C@H]1CN(C(=O)CCOCCCc2cccc3c2C(=O)N(C2CCC(=O)NC2=O)C3=O)CCN1c1ccc(Nc2cc(-c3ccnc(N4CCn5c(cc6c5CC(C)(C)C6)C4=O)c3CO)cn(C)c2=O)nc1` (stereo partly shown) [Compound 28] displayed a DC50 of 1 to 10 nM.

The compound `C[C@H]1CN(C(=O)CCCNc2cccc3c2C(=O)N(C2CCC(=O)NC2=O)C3=O)CCN1c1ccc(Nc2cc(-c3ccnc(N4CCn5c(cc6c5CC(C)(C)C6)C4=O)c3CO)cn(C)c2=O)nc1` (stereo partly shown) [Compound 37] had a DC50 of 1 to 10 nM.

On to `C[C@H]1CN(C(=O)CCOCCOCCOCCOCCNc2cccc3c2C(=O)N(C2CCC(=O)NC2=O)C3=O)CCN1c1ccc(Nc2cc(-c3ccnc(N4CCn5c(cc6c5CC(C)(C)C6)C4=O)c3CO)cn(C)c2=O)nc1` (stereo partly shown) [Compound 51], for which the DC50 was 1 to 10 nM. Turning to `C[C@H]1CN(C(=O)CCOCCC(=O)Nc2cccc3c2CN(C2CCC(=O)NC2=O)C3=O)CCN1c1ccc(Nc2cc(-c3ccnc(N4CCn5c(cc6c5CC(C)(C)C6)C4=O)c3CO)cn(C)c2=O)nc1` (stereo partly shown) [Compound 57], the DC50 lay within 1 to 10 nM.

For `C[C@H]1CN(CCOCCOCCOCCOCCOCCNc2cccc3c2C(=O)N(C2CCC(=O)NC2=O)C3=O)CCN1c1ccc(Nc2cc(-c3ccnc(N4CCn5c(cc6c5CC(C)(C)C6)C4=O)c3CO)cn(C)c2=O)nc1` (stereo partly shown) [Compound 39], the DC50 was 1 to 10 nM. `C[C@H]1CN(C(=O)CCOCCOCCOCCNc2cccc3c2C(=O)N(C2CCC(=O)NC2=O)C3=O)CCN1c1ccc(Nc2cc(-c3ccnc(N4CCn5c(cc6c5CC(C)(C)C6)C4=O)c3CO)cn(C)c2=O)nc1` (stereo partly shown) [Compound 52] displayed a DC50 of 1 to 10 nM.
